Data: US10988474B2, “Compounds acting at multiple prostaglandin receptors giving a general anti-inflammatory response” (ALLERGAN, INC., priority 2011, dated 2021)

Tests used:
Type in all cases: cell-based
[1] = target: T1, human prostanoid EP3 receptor (Homo sapiens, UniProt P43115); assay: FLIPR Ca2+ signaling PG antagonist assay, EP3 stable cell line; conditions: HEK-293 EBNA cells, human recombinant EP3 with chimeric Gqi; standard agonist PGE2
T1 construct: expressed in transfected cells
T1 sequence (P43115 1-390): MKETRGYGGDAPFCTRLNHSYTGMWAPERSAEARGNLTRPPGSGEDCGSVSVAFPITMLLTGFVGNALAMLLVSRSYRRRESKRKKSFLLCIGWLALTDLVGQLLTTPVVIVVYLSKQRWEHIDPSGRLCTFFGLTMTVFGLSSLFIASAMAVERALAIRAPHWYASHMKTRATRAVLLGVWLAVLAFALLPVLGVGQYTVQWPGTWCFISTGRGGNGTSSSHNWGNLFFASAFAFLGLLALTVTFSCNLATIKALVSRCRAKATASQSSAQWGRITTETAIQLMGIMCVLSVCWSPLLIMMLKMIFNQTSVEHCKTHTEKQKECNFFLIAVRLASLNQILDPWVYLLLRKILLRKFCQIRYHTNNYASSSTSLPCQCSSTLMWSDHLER
Method in brief: (§1)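 Stable HEK-293 EBNA lines (DP1 with chimeric Gqs, EP3 with Gqi, EP1 and FP without exogenous G protein) were Fluo-4AM-loaded and pretreated 4.5 min at 37 °C with compound (0.1–30 μM). Agonist (BW 245C for DP1, PGE2 for EP1/EP3, 17-phenyl-PGF2α for FP) was then added at 10^−11–10^−5 M. Peak Ca2+ fluorescence was taken relative to agonist at 10^−6 M.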

[2] = target: T2, human prostanoid FP receptor (Homo sapiens, UniProt P43088); assay: FLIPR Ca2+ signaling PG antagonist assay, FP stable cell line; conditions: HEK-293 EBNA cells, human recombinant FP, no exogenous G-protein; standard agonist 17-phenyl-PGF2α
T2 construct: expressed in transfected cells
T2 sequence (P43088 whole entry): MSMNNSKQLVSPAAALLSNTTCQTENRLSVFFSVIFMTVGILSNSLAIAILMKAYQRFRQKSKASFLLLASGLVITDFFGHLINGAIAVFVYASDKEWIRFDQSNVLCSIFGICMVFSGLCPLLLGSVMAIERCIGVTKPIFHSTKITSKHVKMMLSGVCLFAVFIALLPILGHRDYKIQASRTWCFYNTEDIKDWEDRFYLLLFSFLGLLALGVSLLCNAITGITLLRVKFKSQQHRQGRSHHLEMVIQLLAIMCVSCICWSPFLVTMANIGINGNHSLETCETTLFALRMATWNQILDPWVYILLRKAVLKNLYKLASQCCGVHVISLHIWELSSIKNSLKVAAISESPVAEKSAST
Method in brief: as §1

[3] = target: T3, human prostanoid TP receptor (Homo sapiens, UniProt P21731); assay: FLIPR Ca2+ signaling PG antagonist assay, TP stable cell line; conditions: HEK-293 EBNA cells, human recombinant TP, no exogenous G-protein; standard agonist U-46619
T3 construct: expressed in transfected cells
T3 sequence (P21731 1-343): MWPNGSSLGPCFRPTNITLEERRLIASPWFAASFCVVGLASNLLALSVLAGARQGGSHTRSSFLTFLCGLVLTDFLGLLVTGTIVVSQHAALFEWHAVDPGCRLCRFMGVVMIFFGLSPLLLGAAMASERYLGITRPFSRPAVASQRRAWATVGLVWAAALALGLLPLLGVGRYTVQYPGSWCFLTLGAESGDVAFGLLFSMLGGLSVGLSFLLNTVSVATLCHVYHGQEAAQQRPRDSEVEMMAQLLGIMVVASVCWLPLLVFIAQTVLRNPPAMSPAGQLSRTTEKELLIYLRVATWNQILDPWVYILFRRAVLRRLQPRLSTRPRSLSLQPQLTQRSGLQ
Method in brief: (§2)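 HEK-293 EBNA stable lines; EP2 co-expressed with chimeric Gqs, EP1/IP/TP with no exogenous G protein. Fluo-4AM-loaded cells pretreated 4.5 min at 37 °C with compound (0.1–30 μM; TP 0.067–1 μM), then standard agonist (PGE2, cicaprost, U-46619) 10^−11–10^−5 M (TP 10^−12–10^−6 M); peak fluorescence read 3.5 min, nonlinear regression.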

[4] = target: T4, human prostanoid EP4 receptor (Homo sapiens, UniProt P35408); assay: FLIPR Ca2+ signaling PG antagonist assay, EP4 stable cell line; conditions: HEK-293 EBNA cells, human recombinant EP4 with chimeric Gqs; standard agonist PGE2
T4 construct: expressed in transfected cells
T4 sequence (P35408 whole entry): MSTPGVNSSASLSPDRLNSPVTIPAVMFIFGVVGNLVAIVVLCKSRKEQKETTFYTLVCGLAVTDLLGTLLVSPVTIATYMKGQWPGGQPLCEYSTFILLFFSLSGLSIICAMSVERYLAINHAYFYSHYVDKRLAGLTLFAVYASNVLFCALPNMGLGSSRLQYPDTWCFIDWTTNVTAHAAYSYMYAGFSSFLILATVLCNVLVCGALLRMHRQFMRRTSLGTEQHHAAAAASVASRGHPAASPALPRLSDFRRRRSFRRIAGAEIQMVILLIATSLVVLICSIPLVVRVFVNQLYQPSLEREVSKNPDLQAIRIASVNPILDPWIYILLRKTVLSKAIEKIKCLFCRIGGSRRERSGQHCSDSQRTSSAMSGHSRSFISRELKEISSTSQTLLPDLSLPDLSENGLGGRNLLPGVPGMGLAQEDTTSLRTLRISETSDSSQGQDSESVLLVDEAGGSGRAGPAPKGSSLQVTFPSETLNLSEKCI
Method in brief: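 Antagonism at human EP4 was assessed as a Ca^2+ signal in stable HEK-293 EBNA transfectants carrying chimeric Gqs. Dye-loaded cells in HBSS-HEPES at 37° C received test compound, then a 7-point 10-fold PGE2 series. Fluorescence was excited at 470-495 nm and read at 515-575 nm for 3.5 minutes, with each condition run in triplicate and buffer used as the negative control.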

[5] = target: T5, human prostanoid IP receptor (Homo sapiens, UniProt P43119); assay: FLIPR Ca2+ signaling PG antagonist assay, IP stable cell line; conditions: HEK-293 EBNA cells, human recombinant IP, no exogenous G-protein; standard agonist Cicaprost
T5 construct: expressed in transfected cells
T5 sequence (P43119 whole entry): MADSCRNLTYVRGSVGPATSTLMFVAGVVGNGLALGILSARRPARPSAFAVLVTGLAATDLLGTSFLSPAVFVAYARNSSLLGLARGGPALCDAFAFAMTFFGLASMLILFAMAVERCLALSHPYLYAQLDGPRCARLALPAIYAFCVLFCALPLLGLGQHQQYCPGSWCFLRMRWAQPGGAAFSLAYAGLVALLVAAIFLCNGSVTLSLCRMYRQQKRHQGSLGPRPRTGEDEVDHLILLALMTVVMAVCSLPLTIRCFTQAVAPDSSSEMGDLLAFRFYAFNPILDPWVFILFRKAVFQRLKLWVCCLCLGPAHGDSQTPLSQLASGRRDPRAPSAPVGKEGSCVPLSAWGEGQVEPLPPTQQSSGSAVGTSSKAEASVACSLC
Method in brief: as §2

[6] = target: T6, human prostanoid EP2 receptor (Homo sapiens, UniProt P43116); assay: FLIPR Ca2+ signaling PG antagonist assay, EP2 stable cell line; conditions: HEK-293 EBNA cells, human recombinant EP2 with chimeric Gqs; standard agonist PGE2
T6 construct: expressed in transfected cells
T6 sequence (P43116 whole entry): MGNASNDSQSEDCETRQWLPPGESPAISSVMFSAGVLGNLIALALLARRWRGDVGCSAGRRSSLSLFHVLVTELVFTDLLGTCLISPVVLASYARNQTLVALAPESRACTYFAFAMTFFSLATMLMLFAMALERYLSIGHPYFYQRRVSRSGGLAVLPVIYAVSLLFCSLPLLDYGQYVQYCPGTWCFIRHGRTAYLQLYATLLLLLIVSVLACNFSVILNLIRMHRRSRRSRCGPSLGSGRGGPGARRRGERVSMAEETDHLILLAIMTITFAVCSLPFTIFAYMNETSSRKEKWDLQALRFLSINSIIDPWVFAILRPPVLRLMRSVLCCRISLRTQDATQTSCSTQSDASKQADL
Method in brief: as §2

Compound	Kb [1]	Kb [2]	Kb [3]	Kb [4]	Kb [5]	Kb [6]
O=C(O)c1ccc2c(cnn2Cc2cc(Cl)ccc2OCc2ccccc2)c1 [Example 8, 1-(2-Benzyloxy-5-Chloro-Benzyl)-1H-Indazole-5-Carboxylic Acid]	≥ 10000 nM	200 nM	2100 nM	1300 nM	2800 nM	5000 nM
O=C(O)c1cccc2nn(Cc3cc(Cl)ccc3OCc3ccc(Cl)cc3)cc12 [Example 41, 2-[5-Chloro-2-(4-Chloro-Benzyloxy)-Benzyl]-2H-Indazole-4-Carboxylic Acid]	≥ 10000 nM	≥ 10000 nM	7400 nM	≥ 10000 nM	9800 nM	≥ 10000 nM
O=C(O)c1cccc2c1cnn2Cc1cc(Cl)ccc1OCC1CC1 [Example 34, 1-(5-Chloro-2-Cyclopropylmethoxy-Benzyl)-1H-Indazole-4-Carboxylic Acid]	≥ 10000 nM	3200 nM	100 nM	≥ 10000 nM	≥ 10000 nM	≥ 10000 nM
Cc1ccc(OCC(C)C)c(Cn2ncc3cc(C(=O)O)ccc32)n1 [Example 50, 1-(3-Isobutoxy-6-Methyl-Pyridin-2-ylmethyl)-1H-Indazole-5-Carboxylic Acid]	7100 nM	4900 nM	5700 nM	1800 nM	≥ 10000 nM	≥ 10000 nM
CC(C)(C)COc1ccc(Br)cc1Cn1ncc2cc(C(=O)O)ccc21 [Example 52, 1-[5-Bromo-2-(2,2-Dimethyl-Propoxy)-Benzyl]-1H-Indazole-5-Carboxylic Acid]	2100 nM	11 nM	2 nM	10 nM	≥ 10000 nM	3800 nM
CCC(CC)COc1ccc(Br)cc1Cn1nc(C)c2cc(C(=O)O)ccc21 [Example 27, 1-[5-Bromo-2-(2-Ethyl-Butoxy)-Benzyl]-3-Methyl-1H-Indazole-5-Carboxylic Acid]	2600 nM	200 nM	20 nM	53 nM	440 nM	3640 nM
CC(C)COc1ccc(OCC(F)F)cc1Cn1ncc2cc(C(=O)O)ccc21 [Example 55, 1-[5-(2,2-Difluoro-Ethoxy)-2-Isobutoxy-Benzyl]-1H-Indazole-5-Carboxylic Acid]	≥ 10000 nM	40 nM	300 nM	2100 nM	≥ 10000 nM	≥ 10000 nM
CC(C)COc1ccc(Br)cc1Cn1ncc2cc(C(=O)O)ccc21 [Example 4]	1500 nM	20 nM	2 nM	25 nM	800 nM	1800 nM
CCC(CC)COc1ccc(Br)cc1Cn1c(C)cc2cc(C(=O)O)ccc21 [Example 68, 1-[5-Bromo-2-(2-Ethyl-Butoxy)-Benzyl]-2-Methyl-1H-Indole-5-Carboxylic Acid]	≥ 10000 nM	≥ 10000 nM	≥ 10000 nM	9700 nM	6600 nM	≥ 10000 nM
CC(C)COc1ccc(OC(F)(F)F)cc1Cn1ccc2cc(C(=O)O)ccc21 [Example 71, 1-(2-Isobutoxy-5-Trifluoromethoxy-Benzyl)-1H-Indole-5-Carboxylic Acid]	≥ 10000 nM	120 nM	600 nM	280 nM	≥ 10000 nM	≥ 10000 nM
CC(C)COc1ccc(OC(F)(F)F)cc1Cn1ccc2cc(C(=O)O)cnc21 [Example 74, 1-(2-Isobutoxy-5-Trifluoromethoxy-Benzyl)-1H-Pyrrolo[2,3-B]Pyridine-5-Carboxylic Acid]	2800 nM	660 nM	20 nM	440 nM	1400 nM	≥ 10000 nM
CCC(CC)Oc1ccc(Br)cc1Cn1ncc2cc(C(=O)O)ccc21 [Example 51, 1-[5-Bromo-2-(1-Ethyl-Propoxy)-Benzyl]-1H-Indazole-5-Carboxylic Acid]	2600 nM	110 nM	50 nM	270 nM	1100 nM	≥ 10000 nM
